This is an account of results in ChEMBL document CHEMBL3112451, “Synthesis of 2',3',4'-trihydroxyflavone (2-D08), an inhibitor of protein sumoylation” (Bioorg Med Chem Lett, 2014).

Active and inactive are the calls of the source. The rule behind the calls is not given here.

The assay deals with SUMO E1/E2 (Homo sapiens) (UniProt Q9UBE0+Q9UBT2+P63279). The experiment in a line: Inhibition of purified SUMO E1/E2 (unknown origin)-mediated conjugation of His6-SUMO-1 to fluorescent peptide FL-AR at 30 uM after 90 mins by microfluidic electrophoretic mobility shift assay. Format: protein-complex assay.
Consider `O=c1cc(-c2ccc(O)c(O)c2O)oc2ccccc12`, for which the inhibition result was “Active”.
To `O=c1cc(-c2ccccc2O)oc2c(O)c(O)ccc12` belongs “inactive”; to `O=C(/C=C(\O)c1ccccc1O)c1ccc(O)c(O)c1O`, “Active”.
